# Test results taken from PubChem BioAssay (NCI).
#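 All cell lines were grown in 96-well plates and treated with compound for 48 hours. TGI is the concentration that stops growth completely.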
# Assays:
# Assay in all cases: growth of human tumour cells (NCI), 48 h
# [1] = system: SF-539 CNS
# [2] = system: COLO 205 colon
# [3] = system: PC-3 prostate
# [4] = system: M14 melanoma
# [5] = system: SK-OV-3 ovarian
# [6] = system: SK-MEL-2 melanoma
# [7] = system: TK-10 renal
# [8] = system: NCI-H522 lung
# [9] = system: NCI-H226 lung
# [10] = system: CAKI-1 renal
# [11] = system: IGROV1 ovarian
# [12] = system: HL-60(TB) leukemia
# [13] = system: UACC-62 melanoma
# [14] = system: OVCAR-4 ovarian
# [15] = system: SNB-19 CNS
# [16] = system: SNB-75 CNS
# [17] = system: SF-295 CNS
# [18] = system: KM12 colon
# [19] = system: HS 578T breast
# [20] = system: EKVX NSCLC
# [21] = system: ACHN renal
# [22] = system: RPMI-8226 leukemia
# [23] = system: SF-268 CNS
# [24] = system: DU-145 prostate
# [25] = system: MDA-MB-231 breast
# [26] = system: NCI-H460 lung
# [27] = system: SK-MEL-28 melanoma
# [28] = system: T-47D breast
# [29] = system: SN12C renal
# [30] = system: HOP-62 NSCLC
# [31] = system: SW-620 colon
# [32] = system: LOX IMVI melanoma
# [33] = system: MOLT-4 leukemia
# [34] = system: NCI/ADR-RES ovarian
# [35] = system: UACC-257 melanoma
# [36] = system: CCRF-CEM leukemia
# [37] = system: MALME-3M melanoma
# [38] = system: HCC-2998 colon
# [39] = system: OVCAR-8 ovarian
# [40] = system: K-562 leukemia
# [41] = system: HCT-15 colon
# [42] = system: SK-MEL-5 melanoma
# [43] = system: MDA-MB-435
# [44] = system: MCF7 breast
# [45] = system: 786-0 renal
# [46] = system: SR leukemia
# [47] = system: A549 NSCLC
# [48] = system: RXF 393 renal
# [49] = system: HOP-92 NSCLC
# [50] = system: OVCAR-5 ovarian
# [51] = system: U251 CNS
# [52] = system: MDA-N
# [53] = system: HT29 colon
# [54] = system: UO-31 renal
# [55] = system: BT-549 breast
# [56] = system: HCT-116 colon
# [57] = system: NCI-H23 lung
# [58] = system: OVCAR-3 ovarian
smiles,measurement,setting,value
COc1ccc(/C=C(\C#N)c2nc3ccccc3c(=O)[nH]2)cc1,TGI,[1],26.1 µM
same,TGI,[2],> 100 µM
same,TGI,[3],> 100 µM
same,TGI,[4],> 100 µM
same,TGI,[5],23.8 µM
same,TGI,[6],74.7 µM
same,TGI,[7],83.8 µM
same,TGI,[8],25.2 µM
same,TGI,[9],84.3 µM
same,TGI,[10],80.1 µM
same,TGI,[11],75.1 µM
same,TGI,[12],> 100 µM
same,TGI,[13],> 100 µM
same,TGI,[14],70.3 µM
same,TGI,[15],28.9 µM
same,TGI,[16],> 100 µM
same,TGI,[17],52.2 µM
same,TGI,[18],> 100 µM
same,TGI,[19],91.6 µM
same,TGI,[20],> 100 µM
same,TGI,[21],42.3 µM
same,TGI,[22],> 100 µM
same,TGI,[23],47.2 µM
same,TGI,[24],64.6 µM
same,TGI,[25],19.7 µM
same,TGI,[26],34.4 µM
same,TGI,[27],> 100 µM
same,TGI,[28],75.1 µM
same,TGI,[29],> 100 µM
same,TGI,[30],24.1 µM
same,TGI,[31],> 100 µM
same,TGI,[32],> 100 µM
same,TGI,[33],> 100 µM
same,TGI,[34],90.1 µM
same,TGI,[35],> 100 µM
same,TGI,[36],> 100 µM
same,TGI,[37],> 100 µM
same,TGI,[38],> 100 µM
same,TGI,[39],28.4 µM
same,TGI,[40],> 100 µM
same,TGI,[41],> 100 µM
same,TGI,[42],57.1 µM
same,TGI,[43],> 100 µM
same,TGI,[44],> 100 µM
same,TGI,[45],34.7 µM
same,TGI,[46],> 100 µM
same,TGI,[47],> 100 µM
same,TGI,[48],32.3 µM
same,TGI,[49],29.3 µM
same,TGI,[50],> 100 µM
same,TGI,[51],33.9 µM
same,TGI,[52],> 100 µM
same,TGI,[53],> 100 µM
same,TGI,[54],72.4 µM
same,TGI,[55],29.7 µM
same,TGI,[56],19 µM
CC(C)CC(C(N)=O)C(=O)NC(Cc1ccccc1)NC(=O)CNC(=O)C(C)NC(=O)C(N)Cc1ccc(O)cc1 (stereo not drawn),TGI,[1],> 100 µM
same,TGI,[2],> 100 µM
same,TGI,[3],> 100 µM
same,TGI,[4],> 100 µM
same,TGI,[5],> 100 µM
same,TGI,[6],> 100 µM
same,TGI,[7],> 100 µM
same,TGI,[8],> 100 µM
same,TGI,[9],> 100 µM
same,TGI,[10],> 100 µM
same,TGI,[11],> 100 µM
same,TGI,[12],> 100 µM
same,TGI,[13],> 100 µM
same,TGI,[14],> 100 µM
same,TGI,[15],> 100 µM
same,TGI,[16],> 100 µM
same,TGI,[57],> 100 µM
same,TGI,[17],> 100 µM
same,TGI,[18],> 100 µM
same,TGI,[19],> 100 µM
same,TGI,[20],> 100 µM
same,TGI,[58],> 100 µM
same,TGI,[21],> 100 µM
same,TGI,[22],> 100 µM
same,TGI,[23],> 100 µM
same,TGI,[24],> 100 µM
same,TGI,[25],> 100 µM
same,TGI,[26],> 100 µM
same,TGI,[27],> 100 µM
same,TGI,[28],> 100 µM
same,TGI,[29],> 100 µM
same,TGI,[30],> 100 µM
same,TGI,[31],> 100 µM
same,TGI,[32],> 100 µM
same,TGI,[33],> 100 µM
same,TGI,[34],> 100 µM
same,TGI,[35],> 100 µM
same,TGI,[36],> 100 µM
same,TGI,[37],> 100 µM
same,TGI,[38],> 100 µM
same,TGI,[39],> 100 µM
same,TGI,[40],> 100 µM
same,TGI,[41],> 100 µM
same,TGI,[42],> 100 µM
same,TGI,[43],> 100 µM
same,TGI,[44],> 100 µM
same,TGI,[45],> 100 µM
same,TGI,[46],> 100 µM
same,TGI,[47],> 100 µM
same,TGI,[48],> 100 µM
same,TGI,[50],> 100 µM
same,TGI,[51],> 100 µM
same,TGI,[52],> 100 µM
same,TGI,[53],> 100 µM
same,TGI,[54],> 100 µM
same,TGI,[55],> 100 µM
same,TGI,[56],> 100 µM
COC(=O)c1c(OC(C)=O)ccc2c1c1c(OC(C)=O)c3ccccc3c(OC(C)=O)c1n2C,TGI,[1],61.7 µM
same,TGI,[2],> 100 µM
same,TGI,[3],> 100 µM
same,TGI,[4],99.4 µM
same,TGI,[5],52.4 µM
same,TGI,[6],36 µM
same,TGI,[7],67.8 µM
same,TGI,[8],28.3 µM
same,TGI,[9],> 100 µM
same,TGI,[10],60 µM
same,TGI,[11],35.5 µM
same,TGI,[12],48.1 µM
same,TGI,[13],49.4 µM
same,TGI,[14],93.5 µM
same,TGI,[15],> 100 µM
same,TGI,[16],26.4 µM
same,TGI,[57],> 100 µM
same,TGI,[17],70.7 µM
same,TGI,[18],51.1 µM
same,TGI,[19],62.5 µM
same,TGI,[20],39.2 µM
same,TGI,[58],44.5 µM
same,TGI,[21],85 µM
same,TGI,[22],47.4 µM
same,TGI,[23],77.3 µM
same,TGI,[24],> 100 µM
same,TGI,[25],> 100 µM
same,TGI,[26],> 100 µM
same,TGI,[27],> 100 µM
same,TGI,[28],50.5 µM
same,TGI,[29],> 100 µM
same,TGI,[30],65.1 µM
same,TGI,[33],39.1 µM
same,TGI,[34],> 100 µM
same,TGI,[36],60.5 µM
same,TGI,[37],81.2 µM
same,TGI,[38],52.1 µM
same,TGI,[39],85.2 µM
same,TGI,[40],43.2 µM
same,TGI,[41],> 100 µM
same,TGI,[42],42.1 µM
same,TGI,[43],> 100 µM
same,TGI,[44],> 100 µM
same,TGI,[45],94.8 µM
same,TGI,[46],34.5 µM
same,TGI,[47],> 100 µM
same,TGI,[48],> 100 µM
same,TGI,[49],38.7 µM
same,TGI,[50],> 100 µM
same,TGI,[51],90.2 µM
same,TGI,[52],> 100 µM
same,TGI,[53],> 100 µM
same,TGI,[54],> 100 µM
same,TGI,[55],57.1 µM
same,TGI,[56],58.9 µM
